Key:
[1] = tested on: Leishmania donovani; test: Antileishmanial activity against Leishmania donovani LV82 promastigotes assessed as inhibition of parasite proliferation; type: functional, organism-based
[2] = tested on: Leishmania donovani; test: Antileishmanial activity against Leishmania donovani promastigotes infected in mouse J774 cells assessed as inhibition of parasite proliferation; type: functional, organism-based
[3] = tested on: Leishmania donovani; test: Antileishmanial activity against Leishmania donovani LV82 promastigotes infected in female mouse Peritoneal macrophage cells incubated for 72 hrs by DAPI staining based analysis; type: functional, organism-based
[4] = tested on: Leishmania major; test: Effect on Cholesta-7,24-dienol level in Leishmania major LV39 promastigotes assessed as fold change at 17 uM incubated for 48 hrs by LC-MS/MS analysis; type: functional
[5] = tested on: Leishmania major; test: Effect on lanosterol level in Leishmania major LV39 promastigotes assessed as fold change at 17 uM incubated for 48 hrs by LC-MS/MS analysis; type: functional
[6] = tested on: Leishmania major; test: Effect on Ergosterol level in Leishmania major LV39 promastigotes assessed as fold change at 17 uM incubated for 48 hrs by LC-MS/MS analysis; type: functional
[7] = tested on: Leishmania major; test: Effect on Cholesterol level in Leishmania major LV39 promastigotes assessed as fold change at 17 uM incubated for 48 hrs by LC-MS/MS analysis; type: functional
[8] = tested on: Leishmania major; test: Effect on 5-Dehydroepisterol level in Leishmania major LV39 promastigotes assessed as fold change at 17 uM incubated for 48 hrs by LC-MS/MS analysis; type: functional
[9] = tested on: Leishmania major; test: Effect on 7-Dehydrodesmosterol level in Leishmania major LV39 promastigotes assessed as fold change at 17 uM incubated for 48 hrs by LC-MS/MS analysis; type: functional
[10] = tested on: Leishmania major; test: Effect on Ergosta-5,7-dienol level in Leishmania major LV39 promastigotes assessed as fold change at 17 uM incubated for 48 hrs by LC-MS/MS analysis; type: functional
[11] = tested on: Leishmania major; test: Effect on Zymosterol level in Leishmania major LV39 promastigotes assessed as fold change at 17 uM incubated for 48 hrs by LC-MS/MS analysis; type: functional
[12] = tested on: Leishmania major; test: Effect on Fecosterol level in Leishmania major LV39 promastigotes assessed as fold change at 17 uM incubated for 48 hrs by LC-MS/MS analysis; type: functional
[13] = tested on: Leishmania major; test: Effect on 4-CH2OH-LS sterol level in Leishmania major LV39 promastigotes assessed as fold change at 17 uM incubated for 48 hrs by LC-MS/MS analysis; type: functional
[14] = tested on: Leishmania major; test: Effect on 14-methylzymosterol level in Leishmania major LV39 promastigotes assessed as fold change at 17 uM incubated for 48 hrs by LC-MS/MS analysis; type: functional
[15] = tested on: Leishmania major; test: Effect on Episterol level in Leishmania major LV39 promastigotes assessed as fold change at 17 uM incubated for 48 hrs by LC-MS/MS analysis; type: functional
[16] = tested on: Leishmania major; test: Effect on 4-Methylzymosterol level in Leishmania major LV39 promastigotes assessed as fold change at 17 uM incubated for 48 hrs by LC-MS/MS analysis; type: functional
[17] = tested on: Leishmania major; test: Effect on 4,14-Dimethylzymosterol level in Leishmania major LV39 promastigotes assessed as fold change at 17 uM incubated for 48 hrs by LC-MS/MS analysis; type: functional
[18] = tested on: Leishmania major; test: Effect on Ergostatetraenol level in Leishmania major LV39 promastigotes assessed as fold change at 17 uM incubated for 48 hrs by LC-MS/MS analysis; type: functional
[19] = tested on: Leishmania major; test: Effect on Cholesta-7,24-dienol level in Leishmania major LV39 promastigotes assessed as fold change at 25 uM incubated for 48 hrs by LC-MS/MS analysis; type: functional
[20] = tested on: Leishmania major; test: Effect on 4-CH2OH-LS sterol level in Leishmania major LV39 promastigotes assessed as fold change at 25 uM incubated for 48 hrs by LC-MS/MS analysis; type: functional
[21] = tested on: Leishmania major; test: Effect on Ergostatetraenol level in Leishmania major LV39 promastigotes assessed as fold change at 25 uM incubated for 48 hrs by LC-MS/MS analysis; type: functional
[22] = tested on: Leishmania major; test: Effect on Ergosterol level in Leishmania major LV39 promastigotes assessed as fold change at 25 uM incubated for 48 hrs by LC-MS/MS analysis; type: functional
[23] = tested on: Leishmania major; test: Effect on Episterol level in Leishmania major LV39 promastigotes assessed as fold change at 25 uM incubated for 48 hrs by LC-MS/MS analysis; type: functional
[24] = tested on: Leishmania major; test: Effect on 7-Dehydrodesmosterol level in Leishmania major LV39 promastigotes assessed as fold change at 25 uM incubated for 48 hrs by LC-MS/MS analysis; type: functional
[25] = tested on: Leishmania major; test: Effect on Ergosta-5,7-dienol level in Leishmania major LV39 promastigotes assessed as fold change at 25 uM incubated for 48 hrs by LC-MS/MS analysis; type: functional
[26] = tested on: Leishmania major; test: Effect on Zymosterol level in Leishmania major LV39 promastigotes assessed as fold change at 25 uM incubated for 48 hrs by LC-MS/MS analysis; type: functional
[27] = tested on: Leishmania major; test: Effect on 4,14-Dimethylzymosterol level in Leishmania major LV39 promastigotes assessed as fold change at 25 uM incubated for 48 hrs by LC-MS/MS analysis; type: functional
[28] = tested on: Leishmania major; test: Effect on 5-Dehydroepisterol level in Leishmania major LV39 promastigotes assessed as fold change at 25 uM incubated for 48 hrs by LC-MS/MS analysis; type: functional
[29] = tested on: Leishmania major; test: Effect on 14-Methylfecosterol level in Leishmania major LV39 promastigotes assessed as fold change at 25 uM incubated for 48 hrs by LC-MS/MS analysis; type: functional
[30] = tested on: Leishmania major; test: Effect on Fecosterol level in Leishmania major LV39 promastigotes assessed as fold change at 25 uM incubated for 48 hrs by LC-MS/MS analysis; type: functional
[31] = tested on: Leishmania major; test: Effect on Cholesterol level in Leishmania major LV39 promastigotes assessed as fold change at 25 uM incubated for 48 hrs by LC-MS/MS analysis; type: functional
[32] = tested on: Leishmania major; test: Effect on 4-Methylzymosterol level in Leishmania major LV39 promastigotes assessed as fold change at 25 uM incubated for 48 hrs by LC-MS/MS analysis; type: functional
[33] = tested on: Leishmania major; test: Effect on 14-methylzymosterol level in Leishmania major LV39 promastigotes assessed as fold change at 25 uM incubated for 48 hrs by LC-MS/MS analysis; type: functional
[34] = tested on: Leishmania major; test: Effect on lanosterol level in Leishmania major LV39 promastigotes assessed as fold change at 25 uM incubated for 48 hrs by LC-MS/MS analysis; type: functional
[35] = Inhibition of full length his-tagged recombinant Leishmania donovani CYP51-32c

With `O=C(Nc1ccc(F)cc1)N1CCN(Cc2ccncc2)CC1` the EC50 [1] was greater than 100 µM.
For `Cc1cccc(NC(=O)N2CCN(Cc3ccncc3)CC2)c1`, the EC50 [1] was greater than 100 µM.
With `Cc1ccc(NC(=O)N2CCN(Cc3ccncc3)CC2)cc1` the EC50 [1] was greater than 100 µM.
`CC(C)(C)c1cccc(NC(=O)N2CCN(Cc3ccncc3)CC2)c1` showed an EC50 [2] greater than 50 µM and an EC50 [3] greater than 50 µM.
For `O=C(Nc1ccc(C(F)(F)F)cc1)N1CCN(Cc2ccncc2)CC1`, the EC50 [1] was greater than 50 µM.
In the case of `O=C(Nc1ccc(OCc2cc(C(F)(F)F)cc(C(F)(F)F)c2)cc1)N1CCN(CCn2ccnc2)CC1`, the “fold change (FC)” value [4] is reported as 3.3, the “fold change (FC)” value [5] is reported as 31 and the “fold change (FC)” value [6] is reported as 0.42. The “fold change (FC)” value [7] was 1.9, the “fold change (FC)” value [8] was 0.69 and the “fold change (FC)” value [9] was 0.95. For the same compound, the “fold change (FC)” value [10] was 0.16, the “fold change (FC)” value [11] was 3.4 and the “fold change (FC)” value [12] was 3.2. The “fold change (FC)” value [13] was 1.6, the “fold change (FC)” value [14] was 0.48 and the “fold change (FC)” value [15] was 3.2. For the same compound, the “fold change (FC)” value [16] was 3.2, the “fold change (FC)” value [17] was 1 and the “fold change (FC)” value [18] was 2.4.
`O=C(Nc1cc(C(F)(F)F)cc(C(F)(F)F)c1)N1CCN(Cc2ccncc2)CC1` showed an EC50 [3] greater than 50 µM.
`COc1ccc(NC(=O)N2CCN(Cc3ccncc3)CC2)cc1` showed an EC50 [1] greater than 100 µM.
`O=C(Nc1cccc(Cl)c1)N1CCN(Cc2ccncc2)CC1` showed an EC50 [1] greater than 100 µM.
In the case of `O=C(Nc1ccc(OCc2cc(C(F)(F)F)cc(C(F)(F)F)c2)cc1)N1CCN(CCCc2ccccc2)CC1`, the EC50 [1] is reported as greater than 50 µM.
With `OC(Cn1cncn1)(Cn1cncn1)c1ccc(F)cc1F` [FLUCONAZOLE] the “fold change (FC)” value [19] was 0.38, the “fold change (FC)” value [20] was 0.42 and the “fold change (FC)” value [21] was 0.37. The “fold change (FC)” value [22] was 0.31, the “fold change (FC)” value [23] was 0.6 and the “fold change (FC)” value [24] was 0.044. The “fold change (FC)” value [25] was 0.17, the “fold change (FC)” value [26] was 0.39 and the “fold change (FC)” value [27] was 1.8. For the same compound, the “fold change (FC)” value [28] was 0.25, the “fold change (FC)” value [29] was 229 and the “fold change (FC)” value [30] was 0.6. For the same compound, the “fold change (FC)” value [31] was 0.53, the “fold change (FC)” value [32] was 0.6 and the “fold change (FC)” value [33] was 4.5. The “fold change (FC)” value [34] was 0.47.
With `O=C(Nc1ccc(OCc2cc(C(F)(F)F)cc(C(F)(F)F)c2)cc1)N1CCN(CCn2cncn2)CC1` the EC50 [2] was greater than 50 µM and the EC50 [1] was greater than 50 µM.
`Cc1cc(C)cc(NC(=O)N2CCN(Cc3ccncc3)CC2)c1` gave an EC50 [1] greater than 50 µM.
In the case of `O=C(Nc1ccc(OCc2cc(C(F)(F)F)cc(C(F)(F)F)c2)cc1)N1CCN(CCc2ccccc2)CC1`, the EC50 [1] is reported as greater than 13 µM and the IC50 [35] is reported as greater than 100 µM.

— ChEMBL document CHEMBL6127063, “N-substituted-4-(pyridin-4-ylalkyl)piperazine-1-carboxamides and related compounds as Leishmania CYP51 and CYP5122A1 inhibitors” (Bioorg Med Chem, 2024)
